The values below are quoted from earlier work in patent US8211887B2, “Topical preparation and method for transdermal delivery and localization of therapeutic agents” (priority 2005, dated 2012).

The conditions of one data set: if used for epidural or peripheral nerve blocks or obstetrical anesthesia.
Take `CCCCN1CCCC[C@H]1C(=O)Nc1c(C)cccc1C` [levobupivacaine]: the duration of action was 3 to 9 h.

Still in this data set, the particulars now being: local anesthetic.
As for `CCCCN1CCCC[C@H]1C(=O)Nc1c(C)cccc1C` [levobupivacaine], the onset of action was 2 to 10 min.

With `Cc1cccc(C)c1NC(=O)C1CCCCN1C` (stereo not drawn) [mepivacaine], the duration of action is 0.75 to 1.5 h, the onset of action was 3 to 5 min and the peak was 15 to 45 min.

`CCN(CC)CCOC(=O)c1ccc(N)cc1Cl` [chloroprocaine]: the duration of action is 0.5 to 1 h, the onset of action is 6 to 12 min and the peak is 10 to 20 min.

With `CCN(CC)CCOC(=O)c1ccc(N)cc1` [procaine], the onset of action is 5 to 10 min and the peak result is recorded as “less than 30 minutes”.

Regarding `CCCN1CCCC[C@H]1C(=O)Nc1c(C)cccc1C` [ropivacaine], the onset of action is 1 to 15 min and the peak was 20 to 45 min.

The data set is the same for the next values; noted with them: local anesthetic; for levobupivacaine: locally.
Turning to `CCCCN1CCCC[C@H]1C(=O)Nc1c(C)cccc1C` [levobupivacaine], the duration of action was 2 to 4 h.

With `CCN(CC)CCOC(=O)c1ccc(N)cc1` [procaine], the duration of action result is reported as “less than 2 hours”.

Regarding `CCCN1CCCC[C@H]1C(=O)Nc1c(C)cccc1C` [ropivacaine], the duration of action is 2 to 6 h.
